Assay [1] deals with CLL cells. Briefly: Cytotoxicity in presence of cross-linking (annexin V/PI). Format: cell-based, human. Conditions: for cell death (antibody-mediated apoptosis in the presence of cross-linking): rituximab 10 μg/mL + 50 μg/mL anti-Fc. As for the experimental part:
Cells (10^6 cells/mL) were treated with commercially purchased alemtuzumab (anti-CD52; Ilex Pharmaceuticals, San Antonio, Tex.), rituximab (anti-CD20; Genentech, San Francisco, Calif.), or trastuzumab (anti-HER2; Genentech) at a concentration of 10 μg/mL. Goat antihuman IgG cross-linker (Fc specific; Jackson ImmunoResearch Laboratories, West Grove, Pa.) was added to the cell suspension 5 minutes after adding the primary antibodies at a concentration of 50 μg/mL.
In addition, samples with no treatment or crosslinker alone were collected at matched time points. Apoptosis of cells at 24 and 48 hours after treatment was measured by annexin V-fluorescein isothiocyanate/propidium iodide (PI) flow cytometry analysis according to the supplier's instructions (BD Biosciences).
Cytotoxicity results were expressed as percentage of total positive cells over untreated control [% positive cells=(% annexin^+ and/or PI^+ cells of treatment group)−(% annexin^+ and/or PI^+ cells of untreated control)].

Assay [2] concerns CLL cells. As to the kind of experiment: ADCC, 4-hour 51Cr-release assay. As to conditions: using alemtuzumab, data not shown. Format: cell-based, human. The protocol: For ADCC experiments, CD56^+ and CD19^+ cells were negatively purified from whole blood obtained from either healthy volunteers or CLL subjects by magnetic-activated cell sorting according to the manufacturer's recommendations (MiniMACS; Miltenyi Biotec, Auburn, Calif.). The purity of enriched populations was always greater than 95% of the total yield as detected by CD19 and CD3 staining.
ADCC activity was determined by standard 4-hour ^51Cr-release assay. ^51Cr-labeled target cells (10^5 CLL cells/mL) were incubated with media alone or in the presence of various antibodies (10 μg/mL) at 37° C. for 30 minutes. Unbound antibody was washed off and the cells plated at 10^4 cells/well. Effector cells (natural killer [NK] cells from healthy donors or CLL subjects) were then added to the plates at indicated effector-to-target (E:T) ratios. After a 4-hour incubation, supernatants were removed and measured using a gamma counter. The percentage of specific cell lysis was determined by the equation: % lysis=100×(ER−SR)/(MR−SR), where ER, SR, and MR represent experimental, spontaneous, and maximum release, respectively. Data were normalized to the untreated control.

The values below come from patent US20110280913A1, “Methods and Compositions for Delivering Therapeutic Agents in the Treatment of B-Cell Related Disorders” (THE OHIO STATE UNIVERSITY, priority 2008, published 2011).

Consider “rituximab: anti-CD20 antibody; Genentech”, for which the “cell death (antibody-mediated apoptosis in the presence of cross-linking)” value with CLL cells [1] (lenalidomide-treated CLL cells (48 hours), N=10, P<0.017) is given as 11% ±8%; with CLL cells [1] (vehicle-treated CLL cells (48 hours), N=10), 25% ±11%.

On to “alemtuzumab: anti-CD52 antibody; Ilex Pharmaceuticals”, for which the “change in alemtuzumab-mediated apoptosis with lenalidomide treatment” value in the assay on CLL cells [1] (lenalidomide 48 hours, cross-linking, same conditions) was “No significant change”. In addition, the “change in ADCC, lenalidomide versus untreated cells” value in the assay on CLL cells [2] is listed as “no significant change”.
